Patent US9556179B2 (BRISTOL-MYERS SQUIBB COMPANY, priority 2012, dated 2017)

Experiments:
[1] = target: CK1ε (Homo sapiens (Human), UniProt P49674); test: CK1ε kinase assay (Caliper LABCHIP electrophoretic separation of fluoresceinated peptide substrate and product); type: biochemical; details: 200 pM enzyme, 50 μM ATP, 22 hours at room temperature
Procedure, shortened: (§1)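 Reactions ran 22 hours at room temperature and were stopped with EDTA. Phosphorylated product and unphosphorylated substrate were then separated electrophoretically. Compounds were tested at eleven concentrations, and IC50 values came from non-linear regression.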

[2] = target: CK1δ (Homo sapiens (Human), UniProt P48730); test: CK1δ kinase assay (Caliper LABCHIP electrophoretic separation of fluoresceinated peptide substrate and product); type: biochemical; details: 200 pM enzyme, 50 μM ATP, 22 hours at room temperature
Sequence of CK1δ (P48730 whole entry): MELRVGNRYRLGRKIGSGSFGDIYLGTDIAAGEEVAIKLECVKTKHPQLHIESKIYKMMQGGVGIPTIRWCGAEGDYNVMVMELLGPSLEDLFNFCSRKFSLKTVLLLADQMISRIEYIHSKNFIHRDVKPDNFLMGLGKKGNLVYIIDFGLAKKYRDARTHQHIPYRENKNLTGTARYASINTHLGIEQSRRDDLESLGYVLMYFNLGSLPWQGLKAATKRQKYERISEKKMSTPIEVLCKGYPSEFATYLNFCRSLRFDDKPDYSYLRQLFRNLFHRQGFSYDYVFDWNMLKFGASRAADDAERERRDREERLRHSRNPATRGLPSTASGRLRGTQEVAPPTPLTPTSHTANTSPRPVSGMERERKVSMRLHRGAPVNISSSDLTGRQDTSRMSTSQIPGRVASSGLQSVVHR
Procedure, shortened: as §1

Sequence of CK1ε (P49674 whole entry): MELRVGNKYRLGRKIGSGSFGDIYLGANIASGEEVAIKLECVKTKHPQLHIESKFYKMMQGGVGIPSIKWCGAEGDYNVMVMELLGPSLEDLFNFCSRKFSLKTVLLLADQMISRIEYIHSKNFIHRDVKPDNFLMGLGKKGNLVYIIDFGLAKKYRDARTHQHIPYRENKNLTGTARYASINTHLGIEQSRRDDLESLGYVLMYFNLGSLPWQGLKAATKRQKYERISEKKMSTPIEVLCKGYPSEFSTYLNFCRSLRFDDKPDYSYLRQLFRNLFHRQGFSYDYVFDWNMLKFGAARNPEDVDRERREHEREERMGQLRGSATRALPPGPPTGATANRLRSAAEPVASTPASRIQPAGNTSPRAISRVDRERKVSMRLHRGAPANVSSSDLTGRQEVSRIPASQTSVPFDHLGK

SMILES	IC50 [1]	IC50 [2]
Cc1nc(-c2ccc(F)cc2)c(-c2ccc3nc(NC(=O)c4ccc5ccncc5c4)cn3n2)n1C [Compound 313, N-(6-(4-(4-fluorophenyl)-1,2-dimethyl-1H-imidazol-5-yl)imidazo[1,2-b]pyridazin-2-yl)isoquinoline-7-carbox-amide]	1.89 nM	0.691 nM
Cc1nc(-c2ccc(F)cc2)c(-c2ccc3nc(NC(=O)[C@@H]4CC(F)(F)CN4)cn3n2)n1C [Compound 316, (S)-4,4-difluoro-N-(6-(4-(4-fluorophenyl)-1,2-dimethyl-1H-imidazol-5-yl)imidazo[1,2-b]pyridazin-2-yl)pyrrolidine-2-carboxamide]	39.4 nM	3.09 nM
Cc1nc(-c2ccc(F)cc2)c(-c2ccc3nc(NC(=O)c4cc5ccccc5[nH]4)cn3n2)n1C [Compound 319, N-(6-(4-(4-fluorophenyl)-1,2-dimethyl-1H-imidazol-5-yl)imidazo[1,2-b]pyridazin-2-yl)-1H-indole-2-carboxamide]	12.1 nM	1.73 nM
Cc1nc(-c2ccc(F)cc2)c(-c2ccc3nc(NC(=O)c4ccc(O)nc4)cn3n2)n1C [Compound 322, N-(6-(4-(4-fluorophenyl)-1,2-dimethyl-1H-imidazol-5-yl)imidazo[1,2-b]pyridazin-2-yl)-6-hydroxynicotinamide]	4.76 nM	0.473 nM
Cc1cc[nH]c1C(=O)Nc1cn2nc(-c3c(-c4ccc(F)cc4)nc(C)n3C)ccc2n1 [Compound 326, N-(6-(4-(4-fluorophenyl)-1,2-dimethyl-1H-imidazol-5-yl)imidazo[1,2-b]pyridazin-2-yl)-3-methyl-1H-pyrrole-2-carboxamide]	12.3 nM	2.68 nM
Cc1nc(-c2ccc(F)cc2)c(-c2ccc3nc(NC(=O)c4cc5cnccc5[nH]4)cn3n2)n1C [Compound 327, N-(6-(4-(4-fluorophenyl)-1,2-dimethyl-1H-imidazol-5-yl)imidazo[1,2-b]pyridazin-2-yl)-1H-pyrrolo[3,2-c] pyridine-2-carboxamide]	6.08 nM	0.676 nM
Cc1nc(-c2ccc(F)cc2)c(-c2ccc3nc(NC(=O)c4cccc5ncccc45)cn3n2)n1C [Compound 328, N-(6-(4-(4-fluorophenyl)-1,2-dimethyl-1H-imidazol-5-yl)imidazo[1,2-b]pyridazin-2-yl)-5-quinolinecarboxamide]	2.13 nM	0.335 nM
Cc1nc(-c2ccc(F)cc2)c(-c2ccc3nc(NC(=O)c4ccc(-c5ccc(Cl)cc5)[nH]4)cn3n2)n1C [Compound 329, 5-(4-chlorophenyl)-N-(6-(4-(4-fluorophenyl)-1,2-di-methyl-1H-imidazol-5-yl)imidazo[1,2-b]pyridazin-2-yl)-1H-pyrrole-2-carboxamide]	18.5 nM	3.47 nM
Cc1nc(-c2ccc(F)cc2)c(-c2ccc3nc(NC(=O)c4cc5ccc(F)cc5[nH]4)cn3n2)n1C [Compound 332, 6-fluoro-N-(6-(4-(4-fluoro-phenyl)-1,2-dimethyl-1H-imidazol-5-yl)imidazo[1,2-b]pyridazin-2-yl)-1H-indole-2-carboxamide]	6.86 nM	0.87 nM
Cc1nc(-c2ccc(F)cc2)c(-c2ccc3nc(NC(=O)c4ccc(-c5ccccc5)[nH]4)cn3n2)n1C [Compound 333, N-(6-(4-(4-fluorophenyl)-1,2-dimethyl-1H-imidazol-5-yl)imidazo[1,2-b]pyridazin-2-yl)-5-phenyl-1H-pyrrole-2-carboxamide]	3.28 nM	1.33 nM
Cc1nc(-c2ccc(F)cc2)c(-c2ccc3nc(NC(=O)c4ccc5ncccc5c4)cn3n2)n1C [Compound 336, N-(6-(4-(4-fluorophenyl)-1,2-dimethyl-1H-imidazol-5-yl)imidazo[1,2-b]pyridazin-2-yl)-6-quinolinecarboxamide]	2.2 nM	0.507 nM

More lines, in order of falling IC50 [1], values ahead:

IC50 [1]	IC50 [2]	SMILES
375 nM	19.8 nM	Cc1nc(-c2ccc(F)cc2)c(-c2ccc3nc(NC(=O)[C@@H]4CCCN4)cn3n2)n1C [Compound 315, (S)-N-(6-(4-(4-fluorophenyl)-1,2-dimethyl-1H-imidazol-5-yl)imidazo[1,2-b]pyridazin-2-yl)pyrrolidine-2-carbox-amide]
3.34 nM	0.373 nM	Cc1nc(-c2ccc(F)cc2)c(-c2ccc3nc(NC(=O)c4cccc5cnccc45)cn3n2)n1C [Compound 330, N-(6-(4-(4-fluorophenyl)-1,2-dimethyl-1H-imidazol-5-yl)imidazo[1,2-b]pyridazin-2-yl)-5-isoquinoline-carboxamide]
3.1 nM	0.479 nM	Cc1nc(-c2ccc(F)cc2)c(-c2ccc3nc(NC(=O)c4ccc(-n5cccn5)nc4)cn3n2)n1C [Compound 314, N-(6-(4-(4-fluorophenyl)-1,2-dimethyl-1H-imidazol-5-yl)imidazo[1,2-b]pyridazin-2-yl)-6-(1H-pyrazol-1-yl) nicotinamide]
2.57 nM	0.476 nM	Cc1nc(-c2ccc(F)cc2)c(-c2ccc3nc(NC(=O)c4ccns4)cn3n2)n1C [Compound 335, N-(6-(4-(4-fluorophenyl)-1,2-dimethyl-1H-imidazol-5-yl)imidazo[1,2-b]pyridazin-2-yl)-5-isothiazolecarboxamide]
1.97 nM	0.152 nM	Cc1nc(-c2ccc(F)cc2)c(-c2ccc3nc(NC(=O)c4ccc(F)nc4)cn3n2)n1C [Compound 321, 6-fluoro-N-(6-(4-(4-fluoro-phenyl)-1,2-dimethyl-1H-imidazol-5-yl)imidazo[1,2-b]pyridazin-2-yl)nicotinamide]
1.91 nM	0.344 nM	Cc1nc(-c2ccc(F)cc2)c(-c2ccc3nc(NC(=O)c4ccnc(N5CCOCC5)c4)cn3n2)n1C [Compound 324, N-(6-(4-(4-fluorophenyl)-1,2-dimethyl-1H-imidazol-5-yl)imidazo[1,2-b]pyridazin-2-yl)-2-morpholinoisonicotin-amide]
1.86 nM	0.274 nM	Cc1nc(-c2ccc(F)cc2)c(-c2ccc3nc(NC(=O)c4ccnc(F)c4)cn3n2)n1C [Compound 320, 2-fluoro-N-(6-(4-(4-fluoro-phenyl)-1,2-dimethyl-1H-imidazol-5-yl)imidazo[1,2-b]pyridazin-2-yl)isonicotin-amide]
1.45 nM	0.249 nM	Cc1nc(-c2ccc(F)cc2)c(-c2ccc3nc(NC(=O)c4cccc5ccncc45)cn3n2)n1C [Compound 331, N-(6-(4-(4-fluorophenyl)-1,2-dimethyl-1H-imidazol-5-yl)imidazo[1,2-b]pyridazin-2-yl)-8-isoquinoline-carboxamide]
1.44 nM	0.323 nM	Cc1nc(-c2ccc(F)cc2)c(-c2ccc3nc(NC(=O)c4cccc(-c5cccnc5)c4)cn3n2)n1C [Compound 325, N-(6-(4-(4-fluorophenyl)-1,2-dimethyl-1H-imidazol-5-yl)imidazo[1,2-b]pyridazin-2-yl)-3-(pyridin-3-yl) benzamide]
0.966 nM	0.824 nM	Cc1nc(-c2ccc(F)cc2)c(-c2ccc3nc(NC(=O)c4c[nH]c5ccncc45)cn3n2)n1C [Compound 334, N-(6-(4-(4-fluorophenyl)-1,2-dimethyl-1H-imidazol-5-yl)imidazo[1,2-b]pyridazin-2-yl)-1H-pyrrolo[3,2-c] pyridine-3-carboxamide]
